Assay results reported in patent US9932333B2, “Benzothiazole compound and medicine containing same” (JAPAN SCIENCE AND TECHNOLOGY AGENCY, priority 2014, dated 2018).
Square brackets hold non-standard residues; d marks the D form. Peptide text beside a SMILES is read from it. * marks the point of attachment. X1 = C[n+]1c(-c2ccc3c(c2)CCCN3CCCCCC(=O)*)sc2cc(Br)ccc21; dBip = N[C@H](Cc1ccc(-c2ccccc2)cc1)C(=O)O

Legend:
Absorption spectra = format: physicochemical
Aβ1-42 [1] = biological target: T1, Aβ1-42 (Homo sapiens, UniProt P05067); test: Fluorescence spectra in the presence or absence of Aβ1-42; format: binding; conditions: Aβ1-42 20 μM, 37° C., 3 hours
Aβ1-42 [2] = biological target: T1, Aβ1-42; test: Oxidation reaction of Aβ1-42 under LED irradiation (Example 3); format: biochemical
Experimental: (§1) Then, the reaction was monitored with a mass spectrometer (MALDI-TOF MS) or LC/MS (ESI-Q).
(§2) The amino acid analysis of oxidized Aβ1-42 and oxidized amylin (carried out by Peptide Institute, Inc.) was conducted. The oxidized Aβ1-42 and the oxidized amylin were enzymatically digested with endopeptidase Lys-C and chymotrypsin, respectively, and the obtained digests were analyzed with a mass spectrometer (MALD-TOF MS) and LC/MS/MS (ESI-Q-TOF).

angiotensin IV [3] = biological target: T2, angiotensin IV (Homo sapiens, UniProt P01019); test: Oxidation reaction of angiotensin IV (Example 3); format: biochemical; conditions: light irradiation 1.5 hours, neutral buffer, 37° C.
Excerpt: as §1

methionine enkephalin [4] = biological target: T3, methionine enkephalin (Homo sapiens, UniProt P01210); test: Oxidation reaction of methionine enkephalin (Example 3); format: biochemical; conditions: light irradiation 1.5 hours, neutral buffer, 37° C.
Excerpt: as §1

[5] = biological target: Aβ coexisting with angiotensin IV and methionine enkephalin (Homo sapiens, UniProt P05067); test: Oxygenation with Aβ coexisting with angiotensin IV and methionine enkephalin; format: biochemical
Excerpt: as §1

amylin = biological target: T4, amylin (Homo sapiens, UniProt P10997); test: Oxidation reaction of amylin; format: biochemical
T4 construct: amylin, a hormone essential for glycemic control
T4 sequence (P10997 34-70 limits assumed): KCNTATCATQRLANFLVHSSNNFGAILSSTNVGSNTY
Experimental: as §1, §2

[6] = Fluorescence in glycerol/water mixed solvent; format: physicochemical; conditions: increasing glycerol concentration
[7] = Singlet oxygen production in glycerol/water (furfuryl alcohol decrease); conditions: aqueous solution containing glycerol, light irradiation
Excerpt: (§3) Then, the reaction was monitored with LC/MS (ESI-Q).

[8] = Oxidation reaction of benzoyl methionine in glycerol/water; conditions: aqueous solution containing glycerol, light irradiation
Excerpt: as §3

angiotensin IV [9] = biological target: T2, angiotensin IV; test: Selectivity of oxygenation reaction, angiotensin IV (Example 4); format: biochemical; parameters: unit not given here; conditions: compound (1a) 20 mmol %, light 1 hour, 37° C.
Excerpt: as §1

methionine enkephalin [10] = biological target: T3, methionine enkephalin; test: Selectivity of oxygenation reaction, methionine enkephalin (Example 4); format: biochemical; parameters: unit not given here; conditions: compound (1a) 20 mmol %, light 1 hour, 37° C.
Excerpt: as §1

desacyl ghrelin = biological target: T5, desacyl ghrelin (Homo sapiens, UniProt Q9UBU3); test: Selectivity of oxygenation reaction, desacyl ghrelin (Example 4); format: biochemical; parameters: unit not given here; conditions: compound (1a) 20 mmol %, light 1 hour, 37° C.
T5 sequence (Q9UBU3 24-51 limits assumed): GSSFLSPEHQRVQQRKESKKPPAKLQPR
Excerpt: as §1

somatostatin = somatostatin (Homo sapiens, UniProt P61278); test: Selectivity of oxygenation reaction, somatostatin (Example 4); format: biochemical; parameters: unit not given here; conditions: compound (1a) 20 mmol %, light 1 hour, 37° C.
Excerpt: as §1

aggregated Aβ1-42 [11] = biological target: T6, aggregated Aβ1-42 (Homo sapiens, UniProt P05067); test: Binding to aggregated Aβ1-42 by fluorescence assay (Example 5); conditions: 10 μM; Aβ1-42 incubated 0, 1, 3, 6 hours
Experimental: (2) Compound (1a) (10 μM) was added to each of solutions containing 4 types of aggregated Aβ1-42 (0.5 μM) prepared by the incubation of Aβ1-42 (20 μM) in a phosphate buffer solution (10 mM, pH 7.4) at 37° C. for 0, 1, 3, and 6 hours, respectively, followed by the measurement of the fluorescence intensity of compound (1a).

aggregated Aβ1-42 [12] = biological target: T6, aggregated Aβ1-42; test: Increase of the intensity ratio of oxygenation of aggregated Aβ1-42 (Example 5); format: biochemical; conditions: Aβ1-42 incubated 0, 1, 3, 6 hours; light 10 minutes, room temperature
Experimental: (§4) Then, the reaction was monitored with a mass spectrometer (MALDI-TOF MS).
Increase of the intensity ratio of oxygenation (%) was calculated according to (Intensity ratio of oxygenation of aggregated Aβ1-42 (incubated at 37° C. for the predetermined time))−(Intensity ratio of oxygenation of aggregated Aβ1-42 (incubated at 37° C. for 0 hours)).
The intensity ratio of oxygenation (%) was calculated according to (Total intensity of oxygen adducts)/((Intensity of non-oxygen adduct (native))+(Total intensity of oxygen adducts)).

Aβ1-42 oligomers [13] = biological target: T7, Aβ1-42 oligomers (Homo sapiens, UniProt P05067); test: Binding to Aβ1-42 oligomer by fluorescence assay (Example 6); conditions: 10 μM; oligomers prepared at 0° C. and room temperature, 24 hours
Experimental: (2) Compound (1a) (10 μM) was added to each of solutions containing two types of Aβ1-42 oligomers (0.5 μM) prepared by the incubation of Aβ1-42 (20 μM) in a phosphate buffer solution (10 mM, pH 7.4) at 0° C. and room temperature, respectively, for 24 hours, followed by the measurement of the fluorescence intensity of compound (1a).

Aβ1-42 oligomers [14] = biological target: T7, Aβ1-42 oligomers; test: Oxygenation of Aβ1-42 oligomer (Example 6); format: biochemical; conditions: 4 μM; light 10 minutes, room temperature
Experimental: (3) Compound (1a) (4 μM) was added to each of solutions containing two types of Aβ1-42 oligomers (0.5 μM) prepared by the incubation of Aβ1-42 (20 μM) in a phosphate buffer solution (10 mM, pH 7.4) at 0° C. and room temperature, respectively, for 24 hours, and the mixture was incubated at room temperature for 10 minutes under irradiation with LED (wavelength: 500 nm). Then, the reaction was monitored with a mass spectrometer (MALDI-TOF MS). The intensity ratio of oxygenation (%) was calculated according to (Total intensity of oxygen adducts)/((Intensity of non-oxygen adduct (native))+(Total intensity of oxygen adducts)).

Aβ1-42 oligomers [15] = biological target: T7, Aβ1-42 oligomers; test: Aggregability of oxygenized Aβ1-42 oligomer (Nile Red, atomic force microscopy); format: biochemical; conditions: compared with native
Experimental: (4) Compound (1a) (4 μM) was added to each of solutions containing two types of Aβ1-42 oligomers (0.5 μM) prepared by the incubation of Aβ1-42 (20 μM) in a phosphate buffer solution (10 mM, pH 7.4) at 0° C. and room temperature, respectively, for 24 hours, and the mixture was incubated at room temperature for 1 hour under irradiation with LED (wavelength: 500 nm). Then, each solution was incubated at 37° C., and Nile Red was added thereto, followed by the measurement of its fluorescence intensity. The sample incubated for 6 hours was also analyzed for its shape by atomic force microscopy. A non-oxygenized Aβ1-42 oligomer (native) was prepared without light irradiation.

insulin = biological target: T8, insulin (Homo sapiens, UniProt P01308); test: Oxygenation reaction of insulin; format: biochemical
T8 construct: prepared by the incubation of insulin (400 μM) in a 25 mM hydrochloric acid solution
Excerpt: as §4

β2-microglobulin = β2-microglobulin (Homo sapiens, UniProt P61769); test: Oxygenation reaction of β2-microglobulin; format: biochemical
Excerpt: (§5) The reaction was monitored with a mass spectrometer (MALDI-TOF MS).

transthyretin = transthyretin (Homo sapiens, UniProt P02766); test: Oxygenation reaction of transthyretin; format: biochemical
Excerpt: as §5

α-synuclein = α-synuclein (Homo sapiens, UniProt P37840); test: Oxygenation reaction of α-synuclein; format: biochemical
Excerpt: as §5

Aβ1-42 [16] = biological target: T1, Aβ1-42; test: Oxygenation ratio of aggregated to non-aggregated Aβ1-42 (Example 8); format: biochemical; conditions: 20.0 mmol %, pH 7.4, room temperature, light 10 minutes
Experimental: as §4
(§6) Each oxygenation ratio was calculated according to (Intensity ratio of oxygenation of aggregated Aβ1-42)/(Intensity ratio of oxygenation of non-aggregated Aβ1-42) and (Intensity ratio of oxygenation of aggregated nucleoside phosphorylase)/(Intensity ratio of oxygenation of non-aggregated nucleoside phosphorylase).

nucleoside phosphorylase = test: Oxygenation ratio of aggregated to non-aggregated nucleoside phosphorylase (Example 8); format: biochemical; conditions: 4 μM, pH 7.4, room temperature, light 10 minutes
Experimental: (1) A phosphate buffer solution (10 mM, pH 7.4) containing nucleoside phosphorylase (0.1 mg/mL) was incubated at 60° C. The degree of thermal aggregation was monitored using a fluorescence assay kit (Protein Stability and Aggregation Assay Kit (ProFoldin, Hudson, Mo., USA)).
as §5, §6

Aβ1-42 [17] = biological target: T1, Aβ1-42; test: Oxygenation of Aβ1-42 in cell culture medium; format: biochemical; conditions: 50 mmol %, light 500 nm, 30 minutes, medium containing 0.1% horse serum
Excerpt: as §4

PC12 cells = format: cell-based, rat
Experimental: The solution was added at 50 μL/well to rat adrenal medulla-derived pheochromocytoma PC12 cells (purchased from RIKEN, Japan) inoculated to a poly-D-lysine-coated 96-well plate and similarly reacted. The reaction solution in each well was diluted with 50 μL of a Dulbecco's modified eagle's medium containing 0.1% horse serum (final concentration of Aβ: 10 μM) and then incubated at 37° C. for 48 hours in a 5% CO2 atmosphere. A live cell count measurement reagent SF containing WST-8 (10 μL; purchased from Nacalai Tesque, Inc.) was added to each well, and the mixture was incubated at 37° C. for 3 hours in a 5% CO2 atmosphere. Then, the cell viability was measured from absorbance at 450 nm (reference wavelength: 655 nm).

[18] = 20 μM, light 500 nm, 37° C., 30 minutes

T1 sequence (P05067 672-713 limits assumed): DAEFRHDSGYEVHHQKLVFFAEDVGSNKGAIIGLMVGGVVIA
T7 sequence (P05067 672-713 limits assumed): as above
β2-microglobulin, sequence (P61769 21-119, species assumed): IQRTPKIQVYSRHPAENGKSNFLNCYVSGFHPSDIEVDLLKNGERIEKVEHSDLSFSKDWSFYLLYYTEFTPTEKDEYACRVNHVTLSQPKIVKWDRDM
T8 sequence (P01308 25-54 limits assumed, species assumed): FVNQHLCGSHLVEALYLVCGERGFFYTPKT
T8 sequence (P01308 90-110 limits assumed, species assumed): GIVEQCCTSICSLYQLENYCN
T6 sequence (P05067 672-713 limits assumed): as the sequence (P05067 672-713 limits assumed) above
Aβ coexisting with angiotensin IV and methionine enkephalin, sequence (P05067 672-713): as the sequence (P05067 672-713 limits assumed) above

SMILES: C[n+]1c(-c2cc3c4c(c2)CCCN4CCC3)sc2cc(Br)ccc21 [1a]
- maximum absorption wavelength (Absorption spectra; 20 μM, phosphate buffer pH 7.4): 456 nm
- shift of maximum absorption wavelength to longer wavelength than thioflavin T (Absorption spectra; compared with thioflavin T): approximately 50 nm
- fluorescence in the presence of Aβ compared with absence of Aβ (Aβ1-42 [1]): remarkably high as compared with that in the absence of Aβ
- oxidation efficiency of Aβ (Aβ1-42 [2]; 100 mmol %, light 500 nm, pH 7.4, 37° C., compared with thioflavin T): remarkably high as compared with thioflavin T
- oxygenation site in Aβ1-42 (Aβ1-42 [2]; amino acid analysis and LC/MS/MS analysis): remarkably at His-13 and His-14 residues, and oxygenation also proceeds slightly at Met-35 residue
- oxygenation of angiotensin IV (angiotensin IV [3]): ≤ 5%
- oxygenation of methionine enkephalin (methionine enkephalin [4]): ≤ 5%
- selectivity of oxygenation with coexisting substrates [5]: highly selective oxygenation of Aβ was observed
- selectivity for aggregated over monomeric amylin (amylin): selectively reacts with aggregated amylin without acting on monomeric amylin
- oxygenation of amylin (amylin; 100 mmol %, light 500 nm, pH 7.4, 37° C.): time-dependent oxygenation at His-18 residue was observed
- oxygenation of amylin in a monomeric state (amylin; pre-incubation 0 h): Only a trace amount of an oxygenated form was detected
- oxygenation of amylin aggregated in advance (amylin; pre-incubation 1 hour and 2 hours): the ratio of oxygenized amylin was elevated
- fluorescence intensity in glycerol/water mixed solvent [6]: increased with increase in the concentration of highly viscous glycerol
- production of singlet oxygen (decrease in furfuryl alcohol) [7]: production of singlet oxygen, with increase in the concentration of glycerol was observed
- oxidation of benzoyl methionine [8]: oxidized in a glycerol concentration-dependent manner
- generation of an oxygenated form of angiotensin IV (angiotensin IV [9]): ≤ 2
- generation of an oxygenated form of methionine enkephalin (methionine enkephalin [10]): ≤ 2
- generation of an oxygenated form of desacyl ghrelin (desacyl ghrelin): ≤ 2
- generation of an oxygenated form of somatostatin (somatostatin): ≤ 2
- binding to aggregated Aβ1-42 (fluorescence intensity) (aggregated Aβ1-42 [11]): bind to the cross-β-sheet structure of aggregated Aβ1-42
- increase of the intensity ratio of oxygenation (aggregated Aβ1-42 [12]): increase of the intensity ratio of oxygenation was observed with increase in the fluorescence intensity of thioflavin T
- binding to Aβ1-42 oligomer (fluorescence) (Aβ1-42 oligomers [13]): binds to the Aβ1-42 oligomer
- oxygenation of Aβ1-42 oligomers (Aβ1-42 oligomers [14]): able to catalyze the oxygenation of both of the Aβ1-42 oligomers
- increase in cross-β structure of Aβ1-42 oligomer (Nile Red fluorescence) (Aβ1-42 oligomers [15]; 4 μM, light 1 hour, then 37° C.): suppress increase in the cross-β structure of the Aβ1-42 oligomer
- fibril formation of Aβ1-42 oligomer (atomic force microscopy) (Aβ1-42 oligomers [15]; incubated for 6 hours): similarly suppressed
- progression of oxygenation of aggregated insulin (insulin; [18]): observed
- progression of oxygenation of non-aggregated insulin (insulin; [18]): not observed
- oxygenation of aggregated insulin without light irradiation (insulin; without light irradiation): not observed
- oxygenation of aggregated β2-microglobulin (β2-microglobulin; [18]): observed
- progression of oxygenation of non-aggregated β2-microglobulin (β2-microglobulin; [18]): not observed
- oxygenation of aggregated β2-microglobulin without light irradiation (β2-microglobulin; without light irradiation): not observed
- oxygenation of aggregated transthyretin (transthyretin; [18]): observed
- progression of oxygenation of non-aggregated transthyretin (transthyretin; [18]): not observed
- oxygenation of aggregated transthyretin without light irradiation (transthyretin; without light irradiation): not observed
- oxygenation of aggregated α-synuclein (α-synuclein; [18]): observed
- progression of oxygenation of non-aggregated α-synuclein (α-synuclein; [18]): not observed
- oxygenation of aggregated α-synuclein without light irradiation (α-synuclein; without light irradiation): not observed
- oxygenation ratio (aggregated Aβ1-42 / non-aggregated Aβ1-42) (Aβ1-42 [16]): approximately 4.2
- oxygenation ratio (aggregated / non-aggregated nucleoside phosphorylase) (nucleoside phosphorylase): approximately 1.2

SMILES: CC(C)C[C@@H](NC(=O)[C@@H](CCCCN)NC(=O)CCCCCN1CCCc2cc(-c3sc4cc(Br)ccc4[n+]3C)ccc21)C(=O)N[C@@H](C(=O)N[C@H](Cc1ccc(-c2ccccc2)cc1)C(=O)N[C@H](Cc1ccccc1)C(=O)O)C(C)C [1e] (X1-[dK][dL][dV][dBip][dF]-OH)
- oxygenation of Aβ in a cell medium (Aβ1-42 [17]): approximately 40%
- phototoxicity (cell viability) (PC12 cells): no phototoxicity
